Laboratory results taken from patent US20130115181A1, “AQUEOUS PHARMACEUTICAL SYSTEM FOR THE ADMINISTRATION OF DRUGS TO THE NAILS” (UNIVERSIDADE DE SANTIAGO DE COMPOSTELA, priority 2010, published 2013).

How the values were obtained:
[1] = Triamcinolone acetonide solubility in Pluronic F127NF / cyclodextrin systems; assay type: physicochemical; conditions: systems with Pluronic F127NF, HPB or MBCD; 25° C.
Procedure: Aqueous dispersions of Pluronic F127NF containing a 0.10 and 15%, were prepared by stirring the polymer in water at 4° C. to study the incorporation of the drug. Hydroxypropyl-β-cyclodextrin or partially methylated β-cyclodextrin at concentrations of 0, 0.5% and 10% were also incorporated. Triamcinolone acetonide was added in amounts that far exceeded its aqueous solubility and was stirred at 25° C. for a week. The amount of dissolved triamcinolone was determined spectrophotometrically after filtering the dispersions through a membrane filter of 0.45 micron pore size.

[2] = Penetration of triamcinolone acetonide through calf hoof, Franz-Chien cells; assay type: in vitro ADME; conditions: solutions in the absence of N-acetylcysteine
Source text: For the preparation of thermosensitive systems used in penetration studies through the nail we proceeded as it follows:
1.—Dispersion of the Pluronic F127NF at 10 or 20% (depending on the formulation) in cold water with magnetic stirring until complete dissolution.
2.—Incorporation of triamcinolone acetonide in quantities for concentrations close to saturation (see FIG. 1). […]
In the formulations containing partially methylated β-cyclodextrin, it was incorporated into the system at concentrations of 10% prior to the dissolution of triamcinolone acetonide in order to increase aqueous concentration of the drug (see FIG. 1).
To perform the penetration studies, cylindrical thin slices of calf hoof membrane (0.8-1 mm) were used. The bovine hoof samples were placed using two Teflon adapters between the donor and acceptor compartment of vertical Franz-Chien penetration cells. In the receptor compartment, phosphate buffer (pH 7.4) was added and maintained at 37° C. 1 g of the thermosensitive systems was placed into the […]. Samples from receptor solution were collected at scheduled time, determining the concentration of triamcinolone acetonide by HPLC. The results were normalized by the diffusion surface and the thickness of the calf hoof slides used.

[3] = Penetration of ciclopirox olamine through calf hoof, Franz-Chien cells; assay type: in vitro ADME; conditions: solutions in the absence of N-acetylcysteine
Procedure: Thermosensitive systems used in penetration studies were prepared as it follows:
1.—Dispersion of the Pluronic F127NF to 20% in cold water with magnetic stirring until complete dissolution.
2.- Ciclopirox olamine was incorporated in adequate quantities for concentrations close to saturation (see FIG. 3). […]
In the formulations prepared with partially methylated β-cyclodextrin, it was incorporated into the system at a concentration of 10% prior to the dissolution of triamcinolone acetonide, allowing soluble increasing doses of the drug (see FIG. 3).
Penetration studies were performed with cylindrical thin slices of calf hoof membrane (0.8-1 mm). The bovine hoof samples were placed using two Teflon adapters between the donor and acceptor compartment of vertical Franz-Chien penetration cells. In the receptor compartment, phosphate buffer (pH 7.4) was added and maintained at 37° C. 1 g of the thermosensitive systems was placed into the […]. […] The medium extracted was replaced with the same amount of buffer. The results were normalized by the diffusion surface and the thickness of the calf hoof slides used.

[4] = Ciclopirox olamine solubility in Pluronic F127NF / cyclodextrin systems; assay type: physicochemical; conditions: systems with Pluronic F127NF, HPB or MBCD; 25° C.
Procedure: Dispersions of Pluronic F127NF (0, 10 and 15%) were prepared incorporating hydroxypropyl-β-cyclodextrin or partially methylated β-cyclodextrin at concentrations of 0, 0.5% and 10%. Ciclopirox olamine was added in amounts that far exceeded its aqueous solubility and was stirred at 25° C. for a week. The amount of dissolved ciclopirox was determined spectrophotometrically after filtering the dispersions. Pluronic F127NF dispersions containing 10% of hydroxypropyl-β-cyclodextrin or partially methylated β-cyclodextrin (5% or 10%) and N-acetylcysteine (5-10%) or urea (10-20%) has been studied.

Row | Structure (SMILES) | Effect of N-acetylcysteine on triamcinolone acetonide solubility [1] | Penetration of triamcinolone acetonide through calf hoof [2] | Diffusion and penetration of ciclopirox olamine through calf hoof [3] | Effect of N-acetylcysteine or urea on ciclopirox olamine solubility [4]
1 | CC1(C)O[C@@H]2C[C@H]3[C@@H]4CCC5=CC(=O)C=C[C@]5(C)[C@@]4(F)[C@@H](O)C[C@]3(C)[C@]2(C(=O)CO)O1 [Triamcinolone acetonide] | did not alter the solubility | did not detect the penetration | – | –
2 | Cc1cc(C2CCCCC2)n(O)c(=O)c1 [Ciclopirox olamine] | – | – | did not detect drug diffusion and penetration | significantly influences the solubility
